Assay [1] has as its system HSA secretion from HepG2 cells. Kind of assay: HSA secretion from HepG2 cells (ELISA of culture media). Type of assay: cell-based, human. As to conditions: 16-hour incubation, up to the maximum dose of 20 μM. Here is the method: HepG2 cells were treated with compound A at the indicated doses for 16 hours. The concentration in the cell culture media of apoB, apoAI and HSA after the incubation period was measured with the appropriate ELISA assay and normalized to total cell protein. The data shown are expressed as a percentage of the control (DMSO only).
The human hepatoblastoma cell line, HepG2, was obtained from the American Type Culture Collection (Rockville, Md.; ATCC accession no. 8065). Cultures were maintained at 37° C. in a 5% carbon dioxide atmosphere in T-75 culture flasks with 12 mL of RPMI 1640 medium containing 10% fetal bovine serum (all cell culture media and buffers were obtained from GIBCO Life Technologies, Gaithersburg, Md.). Cells were subcultured 1:4 once a week and fed fresh medium 3 times a week.
Experiments to measure the effects of compounds A and B on protein secretion were carried out in 48-well plates. HepG2 cells were subcultured 1:2 and allowed to come to confluency at least 24 hours before drug treatment. Before commencement of drug treatment, culture medium was removed, the cells washed once with PBS and 1 mL of fresh medium was added quantitatively. […] The cells were homogenized by trituration with a 1 mL micropipettor, and protein was measured using the Coomassie reagent (Pierce Chemical Co, Rockford, Ill.) as described by the manufacturer. […]
For orientation: ELISA stands for enzyme-linked immunosorbent assay.

Assay [2] deals with TG secretion from HepG2 cells. The assay can be described thus: TG secretion from HepG2 cells (3H-glycerol labelling, extraction, TLC). Type of assay: cell-based. As to conditions: Homo sapiens, 1.25 μM-20 μM, 3H-glycerol labelling for two hours, read-out: IC50 for inhibition of TG secretion. The protocol: HepG2 cells were treated with Compound A at the indicated doses for […], the last two hours of which were in the presence of 5 μCi/mL 3H-glycerol. The concentration of radiolabelled triglycerides in the cell culture media was measured by quantitative extraction, followed by thin layer chromatography analysis and normalization to total cell protein. The data shown are expressed as a percentage of the control (DMSO only).
HepG2 cells were subcultured into 6-well dishes and allowed to come to confluency at least 24 hours before drug treatment. Prior to addition of the drug, culture media were removed, cells washed once with PBS, and 1 mL of fresh medium (RPMI 1640+10% FBS) was added quatitatively. […]
Total lipids were extracted from the media and analyzed as follows. […] Raw data was normalized to cell protein and expressed as percent of DMSO control.
HepG2 cells were treated with doses of compound A ranging from 1.25 μM-20 μM under conditions identical to those utilized for the apoB, apoAl and HSA secretion experiment. The intracellular pool of TG was radiolabelled for two hours with 3H-glycerol in the presence of vehicle or varying doses of compound A. The accumulation of radiolabelled TG in the medium was measured by quantitative extraction, followed by thin layer chromatography analysis and normalization to total cell protein. […]

Structures are written as SMILES. Structures can show the parent of a compound that is named as a salt.

Usually IC50 stands for the concentration at which inhibition is half-maximal. In the case of `O=C1c2ccccc2CN1C1CCN(CCC(c2ccccc2)c2ccccc2)CC1` [compound A, 2-[1-(3,3-diphenylpropyl)-4-piperdinyl]-2,3-dihydro-3-oxo-1H-isoindole hydrochloride], the “secretion of HSA” value in assay [1] is given as “unaffected”. For the same compound, the IC50 in assay [2] was ~2000 nM.

For the origin of these results see patent US6492365B1, “Microsomal triglyceride transfer protein” (Bristol-Myers Squibb Company, priority 1992, dated 2002).
